We go through one compound from US9862684B2, “Modulation of K2P channels” (The Regents of the University of California, priority 2013, dated 2018).

The target in one data set is T1, K2P2.1 (TREK-1) W275S (Mus musculus, UniProt P97438, W290S).
T1 construct: expressed in transfected cells; host or cells: Xenopus oocytes
T1 sequence (P97438 1-411 isoform P97438-2 W275S): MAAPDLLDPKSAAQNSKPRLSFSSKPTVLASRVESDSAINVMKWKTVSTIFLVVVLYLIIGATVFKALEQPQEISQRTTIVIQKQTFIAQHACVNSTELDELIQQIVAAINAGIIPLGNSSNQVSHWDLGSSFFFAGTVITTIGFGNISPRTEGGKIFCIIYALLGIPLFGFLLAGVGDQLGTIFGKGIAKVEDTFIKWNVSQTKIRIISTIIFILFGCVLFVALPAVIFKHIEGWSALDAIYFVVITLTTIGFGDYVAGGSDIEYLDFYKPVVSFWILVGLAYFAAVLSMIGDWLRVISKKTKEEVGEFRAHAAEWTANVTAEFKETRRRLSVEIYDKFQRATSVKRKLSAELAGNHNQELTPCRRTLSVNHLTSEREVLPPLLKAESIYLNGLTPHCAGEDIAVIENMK
The data set is described as follows: Two-electrode voltage clamp, Xenopus oocytes, C-type gate mutant W275S. The data set is classed as cell-based, Murine. The method, then: I-V curves were measured by two-electrode voltage clamp of Xenopus oocytes in b, 90 mM [K^+]o. or c-e, 2 mM [K^+]o. […] Data (were measured at 20 mV (90 mM [K^+]o) or 0 mV (2 mM [K^+]o), normalized to basal channel activity, and fitted to the Hill equation. Error bars indicate s.e., n≧6, N≧2.
Murine K2P channels were cloned into pGEMHE/pMO {Bagriantsev, 2011}, IRES-GFP (Invitrogen), or pYES2-MET25 (high copy 2μ, URA3) {Minor, 1999} for expression in oocytes, HEK-293T cells, and yeast, respectively, using standard molecular biology procedures, and verified by DNA sequencing.
Two-electrode voltage clamp recordings were performed from defolliculated stage V-VI Xenopus oocytes 24-48 hours after injection with 0.015-6.0 ng cRNA, using microelectrodes (0.3-3.0 MΩ) filled with 3M KCl. Data was acquired using the GeneClamp 500B (MDS Analytical Technologies) amplifier controlled by the pClamp software (Molecular Devices), and digitized at 1 kHz using Digidata 1332A (MDS Analytical Technologies). Recording solutions (mM): 2K (96 NaCl, 2 KCl, 1.8 CaCl2, 2 MgCl2), 90K (90 KCl, 8 NaCl, 1.8 CaCl2, 2 MgCl2), were buffered 5 mM HEPES pH 7.4. For K2P recordings, currents we elicited by a 1 second long ramp from −150 to +50 mV from a holding potential of −80 mV (2K), or −100 to +50 mV from a holding potential of 0 mV (90K). […]

The next data set is described as follows: Solubility (remarks). The data set is classed as physicochemical.

Turning to `CC1(C)c2cc(Cl)ccc2N(CCc2nnn[nH]2)c2ccc(Cl)cc21` [ML67-33, 2,7-dichloro-9,9-dimethyl-10-[2-(1H-tetrazol-5-yl)ethyl]acridine], on K2P2.1 (TREK-1) W275S, the EC50 stood at 21.8 ± 1.3 µM and the “Emax (fold)” value turned out to be 5.1 ± 0.6 fold. For the same compound, the “solubility (in words)” value in “Solubility (remarks)” is listed as “favorable solubility properties”.
